Key:
PI3K isoform p110γ = PI3K isoform p110γ (Homo sapiens, UniProt P48736); assay: Inhibition of PI3K isoform p110γ; assay type: biochemical
[1] = test system: 282 additional kinases including mTOR and DNAPK; assay: Inhibition of additional kinases (panel); assay type: biochemical
PI3K (p110α/p85α) = target: T1, PI3K (p110α/p85α) (Homo sapiens, UniProt P42336); assay: PI3K activity assay (ADP Hunter Plus); assay type: biochemical; details: read-out: IC50, PI3K inhibition
T1 construct: purchased Carna Biosciences 07CBS-0402A
T1 sequence (P42336 whole entry): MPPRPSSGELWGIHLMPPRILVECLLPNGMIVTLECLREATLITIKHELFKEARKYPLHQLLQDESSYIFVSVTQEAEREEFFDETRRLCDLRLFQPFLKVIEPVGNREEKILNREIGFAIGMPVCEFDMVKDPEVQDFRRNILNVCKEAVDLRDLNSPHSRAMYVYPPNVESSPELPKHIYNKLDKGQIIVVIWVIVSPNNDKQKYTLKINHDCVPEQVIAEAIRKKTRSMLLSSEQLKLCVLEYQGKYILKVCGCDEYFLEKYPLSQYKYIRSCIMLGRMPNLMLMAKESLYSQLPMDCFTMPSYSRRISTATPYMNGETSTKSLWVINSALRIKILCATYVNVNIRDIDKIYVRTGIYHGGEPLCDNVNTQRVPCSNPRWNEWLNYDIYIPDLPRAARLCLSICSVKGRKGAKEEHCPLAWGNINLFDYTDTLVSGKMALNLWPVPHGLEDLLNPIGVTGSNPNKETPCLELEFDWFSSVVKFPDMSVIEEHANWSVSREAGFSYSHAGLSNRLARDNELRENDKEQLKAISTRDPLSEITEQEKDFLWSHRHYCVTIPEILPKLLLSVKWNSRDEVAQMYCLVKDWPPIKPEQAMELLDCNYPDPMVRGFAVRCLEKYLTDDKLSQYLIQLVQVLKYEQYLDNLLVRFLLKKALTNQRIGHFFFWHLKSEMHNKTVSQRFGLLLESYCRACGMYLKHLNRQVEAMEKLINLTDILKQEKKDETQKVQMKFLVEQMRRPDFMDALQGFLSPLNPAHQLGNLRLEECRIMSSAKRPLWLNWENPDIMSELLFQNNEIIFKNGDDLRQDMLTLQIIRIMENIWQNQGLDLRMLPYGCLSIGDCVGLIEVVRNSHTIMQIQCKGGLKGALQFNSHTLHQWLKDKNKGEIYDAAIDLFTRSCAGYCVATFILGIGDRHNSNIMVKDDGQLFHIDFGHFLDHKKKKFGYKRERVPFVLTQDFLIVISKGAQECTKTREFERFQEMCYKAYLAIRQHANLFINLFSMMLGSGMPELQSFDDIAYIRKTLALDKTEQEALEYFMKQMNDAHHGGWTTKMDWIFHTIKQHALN
T1 sequence (P27986 whole entry partner): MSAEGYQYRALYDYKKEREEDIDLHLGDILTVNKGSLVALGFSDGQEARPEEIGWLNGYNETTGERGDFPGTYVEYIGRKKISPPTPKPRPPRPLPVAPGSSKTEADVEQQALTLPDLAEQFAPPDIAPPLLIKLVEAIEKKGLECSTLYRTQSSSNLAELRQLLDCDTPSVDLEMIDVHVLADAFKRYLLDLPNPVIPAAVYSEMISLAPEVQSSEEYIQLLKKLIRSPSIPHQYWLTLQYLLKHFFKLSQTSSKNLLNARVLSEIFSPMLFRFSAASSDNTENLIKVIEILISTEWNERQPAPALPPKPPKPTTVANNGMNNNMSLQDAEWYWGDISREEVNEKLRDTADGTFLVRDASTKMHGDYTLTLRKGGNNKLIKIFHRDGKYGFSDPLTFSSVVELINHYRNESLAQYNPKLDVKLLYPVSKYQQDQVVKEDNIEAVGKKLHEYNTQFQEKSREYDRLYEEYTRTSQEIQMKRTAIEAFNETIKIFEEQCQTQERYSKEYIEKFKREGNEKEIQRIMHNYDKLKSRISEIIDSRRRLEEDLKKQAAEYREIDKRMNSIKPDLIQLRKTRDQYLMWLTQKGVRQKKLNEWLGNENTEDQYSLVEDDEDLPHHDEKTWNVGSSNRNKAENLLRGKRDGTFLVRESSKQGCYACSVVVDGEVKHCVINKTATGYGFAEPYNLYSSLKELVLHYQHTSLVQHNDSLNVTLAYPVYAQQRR
Method: The kinase activity was measured by using the commercial ADP Hunter™ Plus assay available from DiscoveRx (#33-016), which is a homogeneous assay to measure the accumulation of ADP, a universal product of kinase activity. […] Reaction was carried out for 1 hour at 25° C. Reagent A and B were sequentially added to the wells and plates were incubated for 30 min at 37° C. […] Values were normalized against the control activity included for each enzyme (i.e., 100% PI3 kinase activity, without compound). These values were plot against the inhibitor concentration and were fit to a sigmoid dose-response curve by using the Graphad software.

PI3K isoform p110δ = PI3K isoform p110δ (Homo sapiens, UniProt O00329); assay: Inhibition of PI3K isoform p110δ; assay type: biochemical
Sequence of PI3K isoform p110δ (O00329 whole entry, canonical isoform): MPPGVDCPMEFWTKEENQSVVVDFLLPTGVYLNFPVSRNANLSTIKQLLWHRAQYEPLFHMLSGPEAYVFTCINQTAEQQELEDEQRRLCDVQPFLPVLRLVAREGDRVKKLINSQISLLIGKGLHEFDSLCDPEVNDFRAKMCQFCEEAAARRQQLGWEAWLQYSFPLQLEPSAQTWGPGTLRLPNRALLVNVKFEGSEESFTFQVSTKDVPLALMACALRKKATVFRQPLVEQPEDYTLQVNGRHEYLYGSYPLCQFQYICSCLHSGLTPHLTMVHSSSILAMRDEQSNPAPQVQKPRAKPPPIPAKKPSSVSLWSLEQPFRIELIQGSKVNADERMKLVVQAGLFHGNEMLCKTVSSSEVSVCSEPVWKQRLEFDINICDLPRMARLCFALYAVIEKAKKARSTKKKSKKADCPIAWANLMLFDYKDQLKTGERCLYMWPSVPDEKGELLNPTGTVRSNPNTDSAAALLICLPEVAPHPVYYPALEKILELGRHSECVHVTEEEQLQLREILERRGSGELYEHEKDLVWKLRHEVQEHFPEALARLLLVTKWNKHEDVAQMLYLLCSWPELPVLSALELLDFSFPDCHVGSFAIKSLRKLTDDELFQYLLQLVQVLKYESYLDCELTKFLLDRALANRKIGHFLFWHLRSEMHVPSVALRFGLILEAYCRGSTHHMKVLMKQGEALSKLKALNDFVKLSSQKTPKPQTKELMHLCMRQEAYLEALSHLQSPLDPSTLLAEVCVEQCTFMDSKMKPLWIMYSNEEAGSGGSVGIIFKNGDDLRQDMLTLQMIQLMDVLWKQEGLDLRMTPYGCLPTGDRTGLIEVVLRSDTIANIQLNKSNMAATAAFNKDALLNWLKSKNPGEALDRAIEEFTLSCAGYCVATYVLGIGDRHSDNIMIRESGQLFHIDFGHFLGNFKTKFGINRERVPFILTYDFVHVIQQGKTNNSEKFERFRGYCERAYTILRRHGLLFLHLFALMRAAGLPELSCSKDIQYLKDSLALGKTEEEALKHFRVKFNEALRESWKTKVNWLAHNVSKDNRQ
Sequence of PI3K isoform p110δ (P27986 whole entry partner, canonical isoform): as the sequence (P27986 whole entry partner) above

[2] = test system: obese mice under high-fat diet; assay: Adiposity by dual X-ray absorptiometry (DXA) in treated obese mice; assay type: in vivo; details: 2 weeks treatment
Method: Mice treated as in FIG. 22 were subjected to dual X-ray absorptiometry (DXA) to determine their relative content of fat and lean tissues (the head and the bone mass is not measured). Determinations were performed one week before starting the treatment (day −7 or D−7), in the middle of the 2 weeks treatment (day 7 or D7, and at the end of the treatment (day 14 or D14). The content of fat is expressed as the percentage of fat relative to the combined fat and lean mass (upper panel). The absolute lean mass is also shown (lower panel). The two panels include data from the assay shown in FIG. 22, as well as the data from our previous assay with Compound A at 15 mg/kg. The percentage of fat and the lean mass of non-obese littermates (always fed with standard diet, SD) is shown in orange for reference.
Mice were fed either with a standard chow diet (Harlan Teklad 2018, 18% calories from fat) or, when indicated, with a high fat diet (Research Diets D12451, 45% of total calories from fat). To measure food intake, mice were housed in metabolic cages during 5 days, and food and water intake, as well as, the output of faeces and urine were measured during the last 4 days. Body composition (fat and lean content) was determined by Dual energy X-ray Absorptiometry (DXA) (Lunar PIXImus Densitometer, GE Medical Systems). […]

PI3K isoform p1103 = PI3K isoform p1103 (Homo sapiens, UniProt P42338); assay: Inhibition of PI3K isoform p110β; assay type: biochemical
Sequence of PI3K isoform p1103 (P42338 whole entry, canonical isoform): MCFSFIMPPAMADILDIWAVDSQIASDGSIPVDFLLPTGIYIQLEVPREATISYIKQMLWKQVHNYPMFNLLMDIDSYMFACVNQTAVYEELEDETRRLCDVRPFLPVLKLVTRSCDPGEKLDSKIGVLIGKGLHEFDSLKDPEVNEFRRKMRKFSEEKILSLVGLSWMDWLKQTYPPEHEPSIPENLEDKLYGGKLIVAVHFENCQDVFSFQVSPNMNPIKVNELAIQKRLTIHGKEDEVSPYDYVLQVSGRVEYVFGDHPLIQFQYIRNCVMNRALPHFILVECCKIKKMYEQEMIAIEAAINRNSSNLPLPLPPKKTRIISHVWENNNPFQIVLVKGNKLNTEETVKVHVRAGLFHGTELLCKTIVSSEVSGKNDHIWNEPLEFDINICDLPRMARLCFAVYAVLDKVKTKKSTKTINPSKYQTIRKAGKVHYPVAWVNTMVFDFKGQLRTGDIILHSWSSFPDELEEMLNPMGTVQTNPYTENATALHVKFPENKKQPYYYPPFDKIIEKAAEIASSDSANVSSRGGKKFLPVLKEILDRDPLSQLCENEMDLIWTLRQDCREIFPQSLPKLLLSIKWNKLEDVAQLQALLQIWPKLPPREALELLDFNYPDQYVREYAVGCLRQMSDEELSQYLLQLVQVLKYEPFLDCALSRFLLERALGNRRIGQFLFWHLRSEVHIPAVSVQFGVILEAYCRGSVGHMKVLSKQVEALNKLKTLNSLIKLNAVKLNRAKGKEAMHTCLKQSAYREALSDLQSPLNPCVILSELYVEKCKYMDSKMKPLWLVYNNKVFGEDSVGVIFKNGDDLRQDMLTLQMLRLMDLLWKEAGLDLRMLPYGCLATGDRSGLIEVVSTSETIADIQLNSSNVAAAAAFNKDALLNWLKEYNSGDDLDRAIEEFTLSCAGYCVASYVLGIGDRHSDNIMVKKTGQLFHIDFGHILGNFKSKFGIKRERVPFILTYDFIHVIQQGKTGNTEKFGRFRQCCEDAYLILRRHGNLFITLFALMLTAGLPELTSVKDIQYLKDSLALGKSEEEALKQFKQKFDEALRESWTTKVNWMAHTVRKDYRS
Sequence of PI3K isoform p1103 (P27986 whole entry partner, canonical isoform): as the sequence (P27986 whole entry partner) above

[3] = test system: Preadipocytes 3T3-L1 ectopically expressing C/Ebpβ differentiated into brown adipocytes; assay: 3T3-L1/C/Ebpβ differentiated brown adipocytes treated with PI3Ki; assay type: cell-based; details: 1 μM, 4 h
Method: Mouse Embryonic Fibroblasts (MEFs) were isolated at E13.5 as previously described^42. For insulin stimulation, primary MEFs were serum starved (0% FBS) for 12 h, followed by 60 min incubation with PBS and then stimulated with 1 μg/ml of insulin (Sigma) during 30 min. For oncogenic transformation, primary MEFs were retrovirally transduced with pLXSN-neo-E6 and either pWZL-blast-middle-T (kindly provided by Jean Zhao, Dana-Farber Cancer Institute, Boston) or pBABE-puro-EGFRL858R (kindly provided by William Sellers and Matthew Meyerson, Addgene plasmid #11012)^43. After the corresponding drug selection 20,000 cells were plated in 10 cm diameter plates, and 2 weeks later were fixed and stained with 20% Giemsa. Immortalized brown adipocyte cell lines were obtained from the interscapular BAT of 3-5 day-old neonates, treated with and cultured as previously described^33. For immortalization, cultures were retrovirally transduced with Large-T antigen (in vector pBABE-puro, kindly provided by James de Caprio, Dana Farber Cancer Institute, Boston). For the reprogramming of 3T3-L1 adipocytes into brownadipocytes, we followed the method previously reported^50. Briefly, 3T3-L1 cells were retrovirally transduced with pBABE-puro-Cebpb (kindly provided by Roger R. Gomis, IRB, Barcelona). After drug selection with puromycin, cells were grown to confluence and subsequently cultured for 48 h with “differentiation medium” (DMEM 10% FBS, 20 nM insulin, 1 nM T3, 1 μM rosiglitazone, 0.5 mM isobutylmethylxanthine, 125 nM indomethacin, 5 μM dexamethasone). After this, cells were exposed to “maintenance medium” (DMEM 10% FBS, 20 nM insulin, 1 nM T3) for 4 days. […]
Total RNA from tissues or fibroblasts was extracted using TRIZOL (Invitrogen). Reverse transcription was performed using random primers and Ready-To-Go™ You-Prime First-Strand Beads (GE Healthcare). Quantitative real time-PCR was performed using DNA Master Sybr Green I mix (Applied Biosystems) in an ABI PRISM 7700 thermocycler (Applied Biosystem). […]

[4] = alone or in combination with forskolin

Sequence of PI3K isoform p110γ (P48736 whole entry, canonical isoform): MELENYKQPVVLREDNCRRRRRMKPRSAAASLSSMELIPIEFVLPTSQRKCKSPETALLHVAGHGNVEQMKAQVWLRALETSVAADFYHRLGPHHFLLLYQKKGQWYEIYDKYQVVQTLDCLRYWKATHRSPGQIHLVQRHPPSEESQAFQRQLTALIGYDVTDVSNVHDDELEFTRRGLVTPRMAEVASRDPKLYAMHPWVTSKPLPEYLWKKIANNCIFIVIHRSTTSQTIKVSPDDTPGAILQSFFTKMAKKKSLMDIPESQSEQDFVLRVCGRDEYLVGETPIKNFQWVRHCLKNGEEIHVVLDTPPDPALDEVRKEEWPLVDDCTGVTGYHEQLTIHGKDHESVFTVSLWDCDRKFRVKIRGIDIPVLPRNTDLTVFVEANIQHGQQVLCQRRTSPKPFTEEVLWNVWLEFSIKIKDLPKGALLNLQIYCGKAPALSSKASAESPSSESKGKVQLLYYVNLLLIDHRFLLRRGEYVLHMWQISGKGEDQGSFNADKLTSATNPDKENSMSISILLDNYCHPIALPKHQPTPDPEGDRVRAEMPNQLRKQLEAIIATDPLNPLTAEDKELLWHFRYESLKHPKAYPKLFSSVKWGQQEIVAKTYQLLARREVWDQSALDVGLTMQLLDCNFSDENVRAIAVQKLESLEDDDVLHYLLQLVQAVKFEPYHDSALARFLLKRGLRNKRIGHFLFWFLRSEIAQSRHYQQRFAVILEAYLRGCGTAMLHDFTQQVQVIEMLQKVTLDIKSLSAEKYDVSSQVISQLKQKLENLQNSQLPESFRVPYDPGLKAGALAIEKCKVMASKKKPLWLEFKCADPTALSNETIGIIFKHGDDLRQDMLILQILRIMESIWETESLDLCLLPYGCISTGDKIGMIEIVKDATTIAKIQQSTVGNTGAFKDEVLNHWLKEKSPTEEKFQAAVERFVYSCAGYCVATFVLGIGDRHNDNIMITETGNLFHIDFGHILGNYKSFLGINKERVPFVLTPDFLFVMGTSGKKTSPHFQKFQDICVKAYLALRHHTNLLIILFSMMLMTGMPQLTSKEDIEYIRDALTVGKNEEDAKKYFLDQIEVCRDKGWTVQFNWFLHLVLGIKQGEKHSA

Ki (PI3K isoform p110γ): > 100 nM | IC50 [1]: < 1000 nM | IC50 (PI3K (p110α/p85α)): 2.4 nM | Ki (PI3K isoform p110δ): 9.8 nM | Ki (PI3K isoform p1103): > 100 nM
SMILES: CS(=O)(=O)N1CCN(Cc2cn3c(Cl)c(-c4cnc(N)nc4)nc(N4CCOCC4)c3n2)CC1 [Compound A]
fat mass (DXA) [2]: loss of fat mass | lean mass (DXA) [2]: not to a loss of lean mass | levels of phospho-Akt [3]: severe decrease | Pgc1α expression [3, 4]: upregulation | Ucp1 expression [3, 4]: upregulation
